Measured values as given in patent publication US11655216B2 (priority 2016, dated 2023).
Read-outs that look alike come from different tables or passages of the source.

Key:
[1] = target: T1, glutathione-S-transferase (GST) tagged LXRbeta LBD (ligand binding domain) (Homo sapiens, UniProt P55055); assay: LanthaScreen TR-FRET Liver X Receptor Coactivator Assay, LXR beta; format: biochemical; conditions: for EC50: LXR beta IP, potency (Inflection Point), compound-induced co-activator recruitment, TR-FRET; for Emax: read-out: LXR beta actiivty at max dose, efficacy (% Emax) in relation to reference dual agonist T0901317; for LXR beta actiivty at max dose: efficacy (% Emax) in relation to reference dual agonist T0901317
T1 construct: purchased Invitrogen pv4658
T1 sequence (P55055 222-460 limits assumed): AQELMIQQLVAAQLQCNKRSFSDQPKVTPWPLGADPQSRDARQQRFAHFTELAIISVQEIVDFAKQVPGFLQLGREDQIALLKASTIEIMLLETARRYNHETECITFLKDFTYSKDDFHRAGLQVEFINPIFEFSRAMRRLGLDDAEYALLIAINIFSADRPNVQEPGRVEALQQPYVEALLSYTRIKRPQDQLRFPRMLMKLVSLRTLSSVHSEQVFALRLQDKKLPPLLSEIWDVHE
Experimental: (§1) While running the LanthaScreen™ TR-FRET Liver X Receptor Coactivator Assay, LXR alpha-LBD or LXR beta-LBD was added to ligand test compounds followed by addition of a mixture of a fluorescein-labelled coactivator peptide and terbium-conjugated anti-GST antibody. After an incubation period at room temperature, TR-FRET (time-resolved fluorescence resonance energy transfer) was measured using a filter-based instrument capable of TR-FRET, e.g. PerkinElmer Envision.

[2] = target: T2, glutathione-S-transferase (GST) tagged LXRalpha LBD (ligand binding domain) (Homo sapiens, UniProt Q13133); assay: biochemical; conditions: for EC50 / LXR alpha IP: potency (Inflection Point), compound-induced co-activator recruitment, TR-FRET
T2 construct: purchased Invitrogen pv4655
T2 sequence (Q13133 209-447 limits assumed): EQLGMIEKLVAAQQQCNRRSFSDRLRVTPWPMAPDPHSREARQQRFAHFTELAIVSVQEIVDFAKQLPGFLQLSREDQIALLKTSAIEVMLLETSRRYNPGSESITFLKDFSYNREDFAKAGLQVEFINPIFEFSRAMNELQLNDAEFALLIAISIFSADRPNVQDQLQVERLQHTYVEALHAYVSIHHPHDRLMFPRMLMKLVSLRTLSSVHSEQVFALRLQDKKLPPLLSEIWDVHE
Experimental: as §1

[3] = read-out: LXR alpha actiivty at max dose, efficacy (% Emax) in relation to reference dual agonist T0901317

Emax ([2]; efficacy (% Emax) in relation to reference dual agonist T0901317, read-out: LXR alpha actiivty at max dose) [%] | EC50 ([2]; read-out: LXR alpha IP) [nM] | Compound | EC50 [1] [nM] | Emax [1] [%] | EC50 ([2]; LXR alpha IP) [nM] | Emax [2, 3] [%] | LXR alpha IP [2] | LXR beta actiivty at max dose [1] [%]
 |  | CN(C)C(=O)c1ccc(OCC2(CC3CCN(C(=O)C(O)(c4ccccc4)C(F)(F)F)CC3)CC2)cc1Cl (single isomer, unassigned) [Example 17-1, (R or S)-2-chloro-N,N-dimethyl-4-((1-((1-(3,3,3-trifluoro-2-hydroxy-2-phenylpropanoyl)piperidin-4-yl)methyl)cyclopropyl)methoxy)benzamide] | 188 | 77 | 1630 | 19 |  | 
 |  | O=C(NCC(F)F)c1ccc(OCCCCC2CCN(C(=O)[C@](O)(c3ccccc3)C(F)(F)F)CC2)cc1Cl (single isomer, unassigned) [Example 8-9, (R or S)-2-chloro-N-(2,2-difluoroethyl)-4-(4-(1-(3,3,3-trifluoro-2-hydroxy-2-phenylpropanoyl)piperidin-4-yl)butoxy) benzamide] | 94 | 82 | 856 | 34 |  | 
 |  | CN(C)C(=O)c1ccc(OCCCCC2CCN(C(=O)C(O)(c3cccc(F)c3)C(F)(F)F)CC2)cc1Cl (single isomer, unassigned) [Example 3-4, (R or S)-2-chloro-N,N-dimethyl-4-(4-(1-(3,3,3-trifluoro-2-(3-fluorophenyl)-2-hydroxypropanoyl)piperidin-4-yl)butoxy)benzamide] | 7 | 73 | 126 | 41 |  | 
 |  | CC(C)N(C)C(=O)c1ccc(OCCCCC2CCN(C(=O)[C@](O)(c3ccccc3)C(F)(F)F)CC2)cc1Cl (single isomer, unassigned) [Example 8-17, (R or S)-2-chloro-N-isopropyl-N-methyl-4-(4-(1-(3,3,3-trifluoro-2-hydroxy-2-phenylpropanoyl)piperidin-4-yl)butoxy) benzamide] | 17 | 50 |  | 10 | No IP | 
 |  | CC(C)Oc1cccc(C(O)(C(=O)N2CCC(CCCCOc3ccc(C(=O)N(C)C)c(Cl)c3)CC2)C(F)(F)F)c1 (single isomer, unassigned) [Example 3-11, (S or R)-2-chloro-N,N-dimethyl-4-(4-(1-(3,3,3-trifluoro-2-hydroxy-2-(3-isopropoxyphenyl)propanoyl)piperidin-4-yl)butoxy)benzamide] | 9 | 80 | 614 | 21 |  | 
 |  | O=C(NC1CC1)c1ccc(OCCCCC2CCN(C(=O)[C@](O)(c3ccccc3)C(F)(F)F)CC2)cc1Cl (single isomer, unassigned) [Example 8-2, (R or S)-2-chloro-N-cyclopropyl-4-(4-(1-(3,3,3-trifluoro-2-hydroxy-2-phenylpropanoyl)piperidin-4-yl)butoxy) benzamide] | 13 | 68 | 527 | 29 |  | 
 |  | CCC(C)(C(=O)N1CCC2(CC1)C[C@H]2CCOc1ccc(C(=O)N(C)C)c(Cl)c1)c1ccccc1 (single isomer, unassigned) [Example 12-13, 2-chloro-N,N-dimethyl-4-(2-((1S or 1R)-6-(2-methyl-2-phenylbutanoyl)-6-azaspiro[2.5]octan-1-yl)ethoxy)benzamide] | 17 | 72 | 505 | 26 |  | 
12 | 236 | COc1cccc(C(O)(C(=O)N2CCC(C(C)CCCOc3ccc(C(=O)N(C)C)c(Cl)c3)CC2)C(F)(F)F)c1 (single isomer, unassigned) [Example 26-1, 2-chloro-N,N-dimethyl-4-((R or S)-4-(1-((R or S)-3,3,3-trifluoro-2-hydroxy-2-(3-methoxyphenyl)propanoyl)piperidin-4-yl)pentyloxy)benzamide] | 8 | 65 |  |  |  | 
 |  | CN(C)C(=O)c1ccc(OCCCCC2(C)CCN(C(=O)C3(c4ccccc4)CCCC3)CC2)cc1Cl [Example 9-1, 2-chloro-N,N-dimethyl-4-(4-(4-methyl-1-(1-phenylcyclopentanecarbonyl)piperidin-4-yl)butoxy)benzamide] | 51 | 88 | 411 | 13 |  | 
 |  | CC(CCCOc1ccc(C(=O)N(C)C)c(Cl)c1)C1CCN(C(=O)C(O)(c2ccccc2)C(F)(F)F)CC1 (single isomer, unassigned) [Example 26-2, 2-chloro-N,N-dimethyl-4-((R or S)-4-(1-((R or S)-3,3,3-trifluoro-2-hydroxy-2-phenylpropanoyl)piperidin-4-yl)pentyloxy)benzamide] | 6 |  | 103 | 41 |  | 71
 |  | CN(C)C(=O)c1ccc(O[C@H]2C[C@@H](CC3CCN(C(=O)[C@](O)(c4cccc(OC(F)F)c4)C(F)(F)F)CC3)C2)cc1Cl (single isomer, unassigned) [Example 37-9, 2-chloro-4-((1R,3s)-3-((1-((R or S)-2-(3-(difluoromethoxy)phenyl)-3,3,3-trifluoro-2-hydroxypropanoyl)piperidin-4-yl)methyl)cyclobutoxy)-N,N-dimethylbenzamide] | 16 | 111 | 1020 | 25 |  | 
 | 654 | CN(C)C(=O)c1ccc(OCCC[C@@H]2CC23CCN(C(=O)[C@@](O)(c2ccccc2)C(F)(F)F)CC3)nc1Cl (single isomer, unassigned) [Example 15-2, 2-chloro-N,N-dimethyl-6-(3-((R or S)-6-((S or R)-3,3,3-trifluoro-2-hydroxy-2-phenylpropanoyl)-6-azaspiro[2.5]octan-1-yl)propoxy)nicotinamide] | 65 | 115 |  | 32 |  | 
 |  | COc1cccc([C@](O)(C(=O)N2CCC(C[C@H]3C[C@@H](Oc4ccc(C(=O)N(C)C)c(Cl)c4)C3)CC2)C(F)F)c1 (single isomer, unassigned) [Example 37-7, 2-chloro-4-((1R,3s)-3-((1-((R or S)-3,3-difluoro-2-hydroxy-2-(3-methoxyphenyl)propanoyl)piperidin-4-yl)methyl)cyclobutoxy)-N,N-dimethylbenzamide] | 32 | 95 |  | 4 | No IP | 
 |  | CN(C)C(=O)c1ccc(O[C@H]2C[C@@H](CC3CCN(C(=O)[C@](O)(c4cccc(C(F)(F)F)c4)C(F)(F)F)CC3)C2)cc1Cl (single isomer, unassigned) [Example 37-6, 2-chloro-N,N-dimethyl-4-((1R,3s)-3-((1-((R or S)-3,3,3-trifluoro-2-hydroxy-2-(3-(trifluoromethyl)phenyl)propanoyl)piperidin-4-yl)methyl)cyclobutoxy) benzamide] | 15 | 119 | 602 | 31 |  | 
 |  | CN(C)C(=O)c1ccc(OCCCCC2CCN(C(=O)C(O)(c3ccccc3)C(F)(F)F)CC2)nc1Cl (single isomer, unassigned) [Example 3-17, (S or R)-2-chloro-N,N-dimethyl-6-(4-(1-(3,3,3-trifluoro-2-hydroxy-2-phenylpropanoyl)piperidin-4-yl)butoxy)nicotinamide] | 8 |  |  |  |  | 74
 |  | CN(C)C(=O)c1ccc(OCCCCC2CCN(C(=O)C(O)(c3ccccc3)C(F)(F)F)CC2)nc1Cl (single isomer, unassigned) [Example 3-16, (R or S)-2-chloro-N,N-dimethyl-6-(4-(1-(3,3,3-trifluoro-2-hydroxy-2-phenylpropanoyl)piperidin-4-yl)butoxy)nicotinamide] | 259 | 83 |  |  |  | 
 |  | CCc1nc(OCCCCC2CCN(C(=O)C(O)(c3ccccc3)C(F)(F)F)CC2)ccc1C(=O)N(C)C (stereo not drawn) [Example 5-2, 2-ethyl-N,N-dimethyl-6-(4-(1-(3,3,3-trifluoro-2-hydroxy-2-phenylpropanoyl)piperidin-4-yl)butoxyl)nicotinamide] | 63 | 77 |  |  |  | 

Compound | Emax ([2]; efficacy (% Emax) in relation to reference dual agonist T0901317, read-out: LXR alpha actiivty at max dose) [%] | EC50 ([2]; read-out: LXR alpha IP) [nM] | EC50 [1] [nM] | Emax [1] [%] | EC50 ([2]; LXR alpha IP) [nM] | Emax [2, 3] [%] | LXR alpha IP [2] | LXR beta actiivty at max dose [1] [%]
CN(C)C(=O)c1ccc(OC[C@@H](F)CCC2CCN(C(=O)[C@](O)(c3ccccc3)C(F)(F)F)CC2)cc1Cl (single isomer, unassigned) [Example 20-2, 2-chloro-4-((S or R)-2-fluoro-4-(1-((R or S)-3,3,3-trifluoro-2-hydroxy-2-phenylpropanoyl)piperidin-4-yl)butoxy)-N,N-dimethylbenzamide] |  | 1490 | 71 | 73 |  | 25 |  | 
